The source of these data is ChEMBL document CHEMBL1201862, “PubChem BioAssay data set” (2004).

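Cells were grown in 96-well plates and exposed to each compound for 48 hours at five concentrations; endpoints were interpolated linearly between bracketing concentrations, or set to the highest concentration if not reached. Abbreviation: GI50, concentration required for 50% inhibition of growth.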 Active and inactive are the calls of the source. No stated cut-off is given here; in the data, active = GI50 up to about 1.1 µM and inactive = higher. Some results are limits rather than exact numbers.

Common to all, as to assay: NCI tumour cell line growth inhibition, 48 h
Test [1] relates to SK-MEL-28.
Test [2] deals with SF-539.
The subject of test [3] is RXF 393.
The subject of test [4] is HOP-62.
Test [5] concerns RPMI-8226.
Test [6] has as its system A498.
Test [7] deals with SW-620.
Test [8] has as its system MOLT-4.
The test system of test [9] is HT-29.
In test [10] the test system is MDA-MB-435.
The subject of test [11] is MCF7.
Test [12] has as its system T47D.
The test system of test [13] is LOX IMVI.
In test [14] the test system is A549.
For test [15], the system named is K562.
Test [16] relates to UACC-257.
Test [17] has as its system SF-268.
For test [18], the system named is SK-MEL-5.
In test [19] the test system is MDA-MB-231.
Test [20] has as its system SR.

Consider `N=C(Nc1nc(-c2ccccn2)cc2ccccc12)c1ccccn1`, for which the GI50 in [1] was 0.252 µM (active); in [2], 0.097 µM (active); in test [3], 0.0168 µM (active); in test [4], 0.0789 µM (active); in test [5] it was 0.00201 µM (active); in test [6], 0.233 µM (active). Further, the GI50 in [7] is 0.0182 µM (active); in [8] it was 0.01 µM (active); in [9], 0.01 µM (active); in test [10] it was 0.12 µM (active); in test [11], 0.0106 µM (active); in test [12], 0.0244 µM (active). In addition, the GI50 is 0.0266 µM (active) in [13]; 0.0733 µM (active) in test [14]; 0.0108 µM (active) in test [15]; < 0.0172 µM (active) in test [16]; 0.065 µM (active) in [17]; 0.0817 µM (active) in [18]. Besides, in test [19], the GI50 is < 0.0179 µM (active).

As for `O=c1[nH]cnc2c1sc1nc3ccccc3n12`, the GI50 in test [1] is > 100 µM (inactive); in [2], 61.9 µM (inactive); in [3], 16.3 µM (inactive); in [4], > 100 µM (inactive); in test [5], > 100 µM (inactive); in test [6], 33.3 µM (inactive). In addition, the GI50 in test [7] is > 100 µM (inactive); in [8] it was 90.6 µM (inactive); in test [9] it was > 100 µM (inactive); in test [10], > 100 µM (inactive); in test [11], 76.4 µM (inactive); in test [12], > 100 µM (inactive). The GI50 in [13] was 27.8 µM (inactive); in test [14] it was > 100 µM (inactive); in test [16], > 100 µM (inactive); in test [17], > 100 µM (inactive); in [18], > 100 µM (inactive); in [19], > 100 µM (inactive).

Take `O=C(/C=C/c1ccc2c(c1)OCO2)CC(=O)/C=C/c1ccc2c(c1)OCO2`: the GI50 in test [1] is > 10 µM (inactive); in [2], 76.7 µM (inactive); in test [3] it was 87.7 µM (inactive); in test [4] it was > 100 µM (inactive); in test [5] it was > 100 µM (inactive); in test [7], > 100 µM (inactive). Moreover, the GI50 is > 100 µM (inactive) in test [8]; > 100 µM (inactive) in [9]; > 100 µM (inactive) in [10]; 77.4 µM (inactive) in test [11]; > 100 µM (inactive) in [12]; 12.1 µM (inactive) in test [13]. Moreover, the GI50 in test [14] was > 100 µM (inactive); in test [15], 80.2 µM (inactive); in test [17] it was > 10 µM (inactive); in test [18], > 100 µM (inactive); in [19], 34.6 µM (inactive); in test [20] it was 39.1 µM (inactive).

In the case of `O=[N+]([O-])c1ccc(-c2nc3cc(Cl)ccc3[nH]2)cc1`, the GI50 in [1] was > 100 µM (inactive); in test [2], 54.6 µM (inactive); in test [4], > 100 µM (inactive); in test [5], 25.5 µM (inactive); in test [7], 62.4 µM (inactive); in test [8] it was 64 µM (inactive). In addition, the GI50 in test [9] is 51.4 µM (inactive); in test [10], 41.6 µM (inactive); in [11] it was 27.3 µM (inactive); in [12], 39.1 µM (inactive); in test [13] it was 46.2 µM (inactive); in test [14], 42.3 µM (inactive). For the same compound, the GI50 in [16] is 76 µM (inactive); in [17], > 100 µM (inactive); in [18] it was 51.4 µM (inactive); in [19], > 100 µM (inactive); in [20], 34.6 µM (inactive).

On to `Cc1c2c(n(CCc3ccc(Cl)cc3)c1C)NN=C(C#N)S2(=O)=O`, for which the GI50 is > 100 µM (inactive) in [1]; > 100 µM (inactive) in test [2]; > 100 µM (inactive) in test [4]; > 100 µM (inactive) in [5]; > 100 µM (inactive) in test [7]; 69.3 µM (inactive) in test [8]. Besides, the GI50 in [9] was > 100 µM (inactive); in test [10], 42.2 µM (inactive); in test [11] it was > 100 µM (inactive); in test [12], > 100 µM (inactive); in test [13], > 100 µM (inactive); in test [14], > 100 µM (inactive). Besides, the GI50 is 84.7 µM (inactive) in test [15]; > 100 µM (inactive) in test [16]; 48.5 µM (inactive) in test [17]; > 100 µM (inactive) in test [18]; > 100 µM (inactive) in test [19]; 61.9 µM (inactive) in test [20].

`S=C(N/N=C/c1ccccn1)N1CC2CCC(CC2)C1`: the GI50 in [1] was 0.0559 µM (active); in test [2] it was < 0.0229 µM (active); in test [3], 0.0703 µM (active); in [4], < 0.01 µM (active); in test [5], < 0.01 µM (active); in test [6], 0.119 µM (active). Moreover, the GI50 in [7] is < 0.01 µM (active); in test [8], < 0.01 µM (active); in test [9] it was < 0.01 µM (active); in test [10], 0.0404 µM (active); in test [11] it was < 0.01 µM (active); in test [12], < 0.01 µM (active). The GI50 in test [13] is < 0.01 µM (active); in test [14], < 0.01 µM (active); in test [15], < 0.01 µM (active); in [16], < 0.01 µM (active); in test [17], 0.0301 µM (active); in test [18] it was < 0.01 µM (active). Moreover, the GI50 in [19] is < 0.01 µM (active).

Regarding `COc1cc(/N=C(\N)N=C(N)N)c2ncccc2c1`, the GI50 in [1] was > 100 µM (inactive); in test [2] it was 46.8 µM (inactive); in [3], > 100 µM (inactive); in test [4], > 100 µM (inactive); in test [6], > 100 µM (inactive); in test [7] it was > 100 µM (inactive). The GI50 is > 100 µM (inactive) in test [9]; > 100 µM (inactive) in test [10]; > 100 µM (inactive) in [11]; 29.9 µM (inactive) in [12]; > 100 µM (inactive) in test [13]; > 100 µM (inactive) in test [14]. Further, the GI50 in test [16] was > 100 µM (inactive); in [17] it was 98.2 µM (inactive); in test [18], 39.9 µM (inactive); in test [19], > 100 µM (inactive).

In the case of `c1ccc(/N=C2\C(=N/c3ccccc3)N(C3CCCCC3)/C(=N\C3CCCCC3)N2c2ccccc2)cc1`, the GI50 in test [1], in [3], in test [4], in [5], in [6] and in [7] was > 100 µM (inactive) each time. Besides, the GI50 in test [8] is > 100 µM (inactive); in test [9], > 100 µM (inactive); in test [11], > 100 µM (inactive); in test [12] it was 49.9 µM (inactive); in test [14], > 100 µM (inactive); in test [15] it was > 100 µM (inactive). In addition, the GI50 in test [16], in [18], in test [19] and in test [20] was > 100 µM (inactive) each time.

On to `CC1=[N+]([O-])C(C)(C)N(N=O)C1(C)C`, for which the GI50 in test [3], in test [4], in test [5], in test [7], in test [8] and in test [9] was > 10 µM (inactive) in each case. The GI50 in [10], in test [11], in test [12], in test [14], in test [15] and in [16] was > 10 µM (inactive) throughout. Also, the GI50 in test [17] and in test [19] was > 10 µM (inactive) in each case.

Take `CC(=O)OCCN(C1=NCCN1)/[N+](C=c1ccc(=C=[N-])cc1)=C/c1ccc(C#N)cc1`: the GI50 in test [1], in [2], in test [3], in test [4], in [7] and in test [8] was > 100 µM (inactive) in each case. The GI50 in test [9], in test [10], in test [11], in [12], in test [13] and in test [14] was > 100 µM (inactive) each time. The GI50 in test [15], in [16], in test [17], in test [18], in [19] and in test [20] was > 100 µM (inactive) in each case.

Regarding `CCc1nc(N)nc(N)c1-c1ccc(Cl)c([N+]#N)c1`, the GI50 was > 100 µM (inactive) in test [1]; 44.3 µM (inactive) in test [2]; > 100 µM (inactive) in test [3]; 82 µM (inactive) in test [4]; 0.564 µM (active) in test [5]; 36.5 µM (inactive) in test [7]. The GI50 in [8] is 23.1 µM (inactive); in test [9], 33.3 µM (inactive); in test [10] it was 38.7 µM (inactive); in test [11], > 100 µM (inactive); in test [12], > 100 µM (inactive); in test [13] it was 46.5 µM (inactive). In addition, the GI50 was 20.6 µM (inactive) in test [14]; 6.32 µM (inactive) in test [15]; > 100 µM (inactive) in [16]; > 100 µM (inactive) in [17]; 46.2 µM (inactive) in test [18]; > 100 µM (inactive) in test [19]. Also, in test [20], the GI50 was 22.9 µM (inactive).
